Measurements published in patent publication EP1611148B1, “NOVEL NITRILE GLYCOSIDE USEFUL AS A BIO-ENHANCER OF DRUGS AND NUTRIENTS, PROCESS OF ITS ISOLATION FROM MORINGA OLEIFERA” (Council of Scientific and Industrial Research, priority 2003, dated 2004).

Experiments:
M smegmatis (MC^2 155) = test: Bioactivity enhancement of antibiotics (killing efficiency, broth assay) against M smegmatis; conditions: alone or with Niaziridin @ 1.0 µg/ml
B subtilis (MTCC121) = test: Bioactivity enhancement of antibiotics (killing efficiency, broth assay) against B subtilis; conditions: alone or with Niaziridin @ 1.0 µg/ml
E.coli DH5α = test: Enhancement of bacterial transformation with pUC18 plasmid DNA, strain DH5α
Protocol: Overnight grown bacterial E.coli DH5α (Sambrook at al^28) cells were diluted to 10 folds in growth medium and treated with niaziridin @1-10µg/ml for 4 hours at 37°C in a shaker (200 RPM).
These log phase cells were then treated with calcium chloride to induce competence and then transformed with pUC18 plasmid DNA and plated on Luria agar plates containing 100µg/ml ampicillin.
The colonies thus appeared, on the plates for both treated and untreated cultures were scored.

[1] = Bioavailability test using gastro-intestinal epithelium (U-tube); assay type: in vitro ADME, goat; conditions: Vitamine B 12, in combination; Figure 3
From the text: Specially designed U-tubes of glass consisting of two components (opposite-L type) were used in which one open end of an L-shaped was tapered to fit within the end of the other L-tube (as described in US Patent # 6,410,059). The membrane of goat gut (initial part) was stretched and fixed to act as the barrier between the two ends such that by joining the two L-tubes, a U-tube was made. Sterile distilled water was then filled in both the sides to equal height/level. The antibiotic/compound was added to the donor tube (tapered) and through spectro-photometer, the transfer of molecule was observed using UV and visible absorption maxima of the respective molecules by taking the OD at defined wavelengths (264 nm for isoniazid).

E.coli CA8000 = test: Enhancement of bacterial transformation with pUC18 plasmid DNA, strain CA8000
[2] = system: Escherichia coli, CA 8000; test: Enhancement of adsorption of λ phage on bacteria; conditions: cells pretreated with niaziridin @ 1 ug/ml
Protocol: Overnight grown bacterial culture (Escherichia coli, CA 8000) was divided into 5 ml of aliquot each in screw cap tubes. One of the tube with the bacterial culture was treated with niaziridin to a final concentration of 1µg/ml. Both the control and the treated tubes were incubated at 37°C for 4 hours. The cultures were then infected with λ phage (MOI=10) for 10minutes at 37°C (for adsorption) followed by centrifugation at 10000 RPM for 10 minutes at 4°C.
The supernatant and the pellets for both treated and untreated cultures were then compared for the phage titer by plating on top agar containing sensitive bacteria at different dilutions.

[3] = system: M.tuberculosis H37Rv (ATCC 27294); test: Bioactivity enhancement of anti-tubercular drugs, radiometric BACTEC 460 TB system; assay type: cell-based, Mycobacterium tuberculosis
From the text: Since, the bioenhancer compound was able to enhance the activity of antibiotics against Gram (+) bacteria such as M.smegmatis, our subsequent interest was to test the compound against M.tuberculosis H37Rv (ATCC 27294) (Philipp et al 1996; Proc.Natl.Acad.Sci USA 93, 3132-3137), the causal organism of tuberculosis. To accomplish this we employed a radiometric assay using the BACTEC 460 TB system manufactured by M/S Becton Dickinson Ltd., USA. The antimycobacterial property of the drugs in combination with the bioenhancer was studied as per the recommended drug sensitivity protocol prescribed by the manufacturer (BACTEC 460 TB system: Product & Procedure Manual, MA 0029, 1996; Becton Dickinson Co., USA). Briefly the procedure is described below. • (a) The 12 B vials as provided by the manufacture were pre-tested prior to inoculation to establish the recommended CO2 atmosphere. […] After mixing thoroughly, 0.1 ml of this dilution was added into the control 12 B vial (without a drug). • (d) Biosafety precautions were taken as recommended by the manufacturer. • (e) Vials were tested daily in BACTEC 460 TB system for 12 days at approximately the same time each day as recommended by the manufacturer. The mycobacterial growth is expressed as Growth Index (GI) and compared to that of the control vials (antibiotic alone).

C.albicans = test: Enhancement of anticandidial activity of clotrimazole (broth assay)
[4] = anaesthetized rat, 1-10 mg/ kg I.V; cited from earlier work
E.coli (CA8000) = conditions: 6 ug/mL
Staphylococcus aurues = conditions: in combination with 5-Methoxy hydnocarpin (5-MHC); cited from earlier work
[5] = cells pre treated with niaziridin at 1 ug/ml
[6] = cells pre treated with niaziridin at 10 ug/ml

CCn1cc(C(=O)O)c(=O)c2ccc(C)nc21 [Nal, nalidixic acid]
Titre (M smegmatis (MC^2 155); Nal (1.0)): 3.7x10^8 | Titre (B subtilis (MTCC121); Nal (2.0)): 3.1x10^7

niaziridin
Fold enhancement in DNA transformation (E.coli DH5α; [5]): 1.9 Fold | Titre (10^4) (E.coli DH5α; [5]): 16.0 10^4 | Fold enhancement in DNA transformation (E.coli DH5α; [6]): 2.3 Fold | Titre (10^4) (E.coli DH5α; [6]): 20.0 10^4 | uptake of nutrients through the intestinal gut membrane [1]: able to facilitate the uptake of nutrients like Vitamine B 12 through the intestinal gut membrane | Fold enhancement in DNA transformation (E.coli CA8000; [5]): 1.9 Fold | Titre (10^3) (E.coli CA8000; [5]): 8.30 10^3 | Fold enhancement in DNA transformation (E.coli CA8000; [6]): 5.5 Fold | Titre (10^3) (E.coli CA8000; [6]): 24.0 10^3 | Pellet (10^7pfu) ([2]; MOI 5): 7.7 10^7pfu | Supernatant (10^7pfu) ([2]; MOI 5): 7.7 10^7pfu | Pellet (10^7pfu) ([2]; MOI 10): 18.0 10^7pfu | Supernatant (10^7pfu) ([2]; MOI 10): 8.0 10^7pfu | enhancement of antimycobacterial activity of isoniazid (Growth Index) ([3]; in combination with isoniazid, Figure 2): able to enhance the antimycobacterial activity | enhancement of antimycobacterial activity of rifampicin (Growth Index) ([3]; in combination with rifampicin, Figure 1): able to enhance the antimycobacterial activity | enhancement of the antifungal activity of clotrimazole (C.albicans; in combination, observed only at 10ug/ml of the compound): 5-6 folds

niaziminin B
hypotensive and bradycardiac effect [4]: produced hypotensive and bradycardiac effect

COC(=S)NCc1ccc(O[C@@H]2O[C@@H](C)[C@H](O)[C@@H](O)[C@H]2O)cc1 [niazinin A]
hypotensive and bradycardiac effect [4]: produced hypotensive and bradycardiac effect

CN(C)[C@@H]1C(=O)C(C(N)=O)=C(O)[C@@]2(O)C(=O)C3=C(O)c4c(O)cccc4[C@@](C)(O)[C@H]3C[C@@H]12 [Tet, tetracycline]
Titre (M smegmatis (MC^2 155); Tet (2.0)): 1.2x10^8 | Titre (B subtilis (MTCC121); Tet (1.0)): 7.0x10^7

CC1(C)S[C@@H]2[C@H](NC(=O)[C@H](N)c3ccccc3)C(=O)N2[C@H]1C(=O)O [Amp, ampicillin]
Titre (M smegmatis (MC^2 155); Amp (0.1)): 1.0x10^8 | Titre (B subtilis (MTCC121); Amp (0.01)): 2.9x10^8 | % Survival (E.coli (CA8000)): 3.69%

COc1ccc2cc3[n+](cc2c1OC)CCc1cc2c(cc1-3)OCO2 [berberine]
increase of antimicrobial activity of berberine (Staphylococcus aurues): 200 folds

CO[C@H]1/C=C/O[C@@]2(C)Oc3c(C)c(O)c4c(O)c(c(/C=N/N5CCN(C)CC5)c(O)c4c3C2=O)NC(=O)/C(C)=C\C=C\[C@H](C)[C@H](O)[C@@H](C)[C@@H](O)[C@@H](C)[C@H](OC(C)=O)[C@@H]1C [Rif, rifampicin]
Titre (M smegmatis (MC^2 155); Rif (0.05)): 1.3x10^7 | Titre (B subtilis (MTCC121); Rif (0.05)): 2.1x10^8

niazinin B
hypotensive and bradycardiac effect [4]: produced hypotensive and bradycardiac effect

CCOC(=S)NCc1ccc(OC2OC(C)C(O)C(O)C2O)cc1 (centres unmarked) [niazimicin]
hypotensive and bradycardiac effect [4]: produced hypotensive and bradycardiac effect

Clc1ccccc1C(c1ccccc1)(c1ccccc1)n1ccnc1 [Clotrimazole, clotrimazole]
Cfu / ml at 36 h (C.albicans; clotrimazole 0.5ug/ml, alone or with Niaziridin 10ug/ml, 36 h): 23.6 x 10^5 Cfu / ml

niaziminin A
hypotensive and bradycardiac effect [4]: produced hypotensive and bradycardiac effect
